The text below walks through data of patent US9580431B2, “Inhibitors of human immunodeficiency virus replication” (priority 2013, dated 2017).

The subject of one test is recombinant NL-Rluc virus. The test can be described thus: microbe, parasite or virus in culture. In kind it is cell-based, HIV. The note with it: Human immunodeficiency virus 1, MT2, 120 h.
For orientation: EC50 means the midpoint of the concentration-response curve. Regarding `Cc1nc2cc(-n3cc(Cc4ccccc4)cn3)nn2c(N2CCC(C)(C)CC2)c1[C@H](OC(C)(C)C)C(=O)O` [Example 33, (S)-2-(2-(4-Benzyl-1H-pyrazol-1-yl)-7-(4,4-dimethylpiperidin-1-yl)-5-methylpyrazolo[1,5-a]pyrimidin-6-yl)-2-(tert-butoxy)acetic acid], the concentration giving a half-maximal response (EC50) was 11 nM.

The test is the same for the next values; noted with them: Human immunodeficiency virus 1, MT2, 120 h, NL-RLuc virus infecting MT-2 cells, 5 days of incubation, luciferase readout; at least 2 experiments; serum condition not given; read-out: EC50.
As for `Cc1cc(Cc2cnc(-c3cc4nc(C)c([C@H](OC(C)(C)C)C(=O)O)c(N5CCC(C)(C)CC5)n4n3)s2)ccc1F` [Example 15, (S)-2-(tert-Butoxy)-2-(7-(4,4-dimethylpiperidin-1-yl)-2-(5-(4-fluoro-3-methylbenzyl)thiazol-2-yl)-5-methylpyrazolo[1,5-a]pyrimidin-6-yl)acetic acid], the concentration giving a half-maximal response (EC50) was 19 nM.

For `Cc1nc2cc(-n3ccc(Cc4ccccc4)n3)nn2c(N2CCC(C)(C)CC2)c1[C@H](OC(C)(C)C)C(=O)O` [Example 36, (S)-2-(2-(3-Benzyl-1H-pyrazol-1-yl)-7-(4,4-dimethylpiperidin-1-yl)-5-methylpyrazolo[1,5-a]pyrimidin-6-yl)-2-(tert-butoxy)acetic acid], the EC50 is 84 nM.

With `Cc1nc2cc(-c3nc4cc(Cl)ccc4[nH]3)nn2c(-c2cc(F)c3c(c2C)CCCO3)c1[C@H](OC(C)(C)C)C(=O)O` [Example 1, (2S)-2-(tert-Butoxy)-2-(2-(5-chloro-1H-benzo[d]imidazol-2-yl)-7-(8-fluoro-5-methylchroman-6-yl)-5-methylpyrazolo[1,5-a]pyrimidin-6-yl)acetic acid], the EC50 turned out to be 47 nM.

Take `Cc1nc2cc(-n3nccc3Cc3ccccc3)nn2c(N2CCC(C)(C)CC2)c1[C@H](OC(C)(C)C)C(=O)O` [Example 35, (S)-2-(2-(5 Benzyl-1H-pyrazol-1-yl)-7-(4,4-dimethylpiperidin-1-yl)-5-methylpyrazolo[1,5-a]pyrimidin-6-yl)-2-(tert-butoxy)acetic acid]: the EC50 was found to be 573 nM.

Consider `Cc1nc2cc(-c3ncc(Cc4ccc(F)cc4)s3)nn2c(N2CCC(C)(CO)CC2)c1[C@H](OC(C)(C)C)C(=O)O` [Example 21, (S)-2-(tert-Butoxy)-2-(2-(5-(4-fluorobenzyl)thiazol-2-yl)-7-(4-(hydroxymethyl)-4-methylpiperidin-1-yl)-5-methylpyrazolo[1,5-a]pyrimidin-6-yl)acetic acid], for which the EC50 came out at 75 nM.

Turning to `C=CCOC1(C)CCN(c2c([C@H](OC(C)(C)C)C(=O)O)c(C)nc3cc(-c4cnn(Cc5ccccc5)c4)nn23)CC1` [Example 40, (S)-2-(7-(4-(Allyloxy)-4-methylpiperidin-1-yl)-2-(1-benzyl-1H-pyrazol-4-yl)-5-methylpyrazolo[1,5-a]pyrimidin-6-yl)-2-(tert-butoxy)acetic acid], the EC50 is 11 nM.

Regarding `Cc1nc2cc(-n3cc(Cc4ccccc4)c(Cl)n3)nn2c(N2CCC(C)(C)CC2)c1[C@H](OC(C)(C)C)C(=O)O` [Example 38, (S)-2-(2-(4-Benzyl-3-chloro-1H-pyrazol-1-yl)-7-(4,4-dimethylpiperidin-1-yl)-5-methylpyrazolo[1,5-a]pyrimidin-6-yl)-2-(tert-butoxy)acetic acid], the EC50 stood at 23 nM.

As to `Cc1nc2cc(-c3ncc(Cc4ccc(F)cc4)s3)nn2c(N2CCC(C)(O)CC2)c1[C@H](OC(C)(C)C)C(=O)O` [Example 18, (S)-2-(tert-Butoxy)-2-(2-(5-(4-fluorobenzyl)thiazol-2-yl)-7-(4-hydroxy-4-methylpiperidin-1-yl)-5-methylpyrazolo[1,5-a]pyrimidin-6-yl)acetic acid], the 50% effective concentration (EC50) was determined as 143 nM.

Turning to `Cc1nc2cc(-c3ncc(Cc4ccc(F)cc4)s3)nn2c(C2=CCC(C)(C)CC2)c1[C@H](OC(C)(C)C)C(=O)O` [Example 10, (S)-2-(tert-Butoxy)-2-(7-(4,4-dimethylcyclohex-1-en-1-yl)-2-(5-(4-fluorobenzyl)thiazol-2-yl)-5-methylpyrazolo[1,5-a]pyrimidin-6-yl)acetic acid], the EC50 was 19 nM.

For the molecule `Cc1nc2cc(-c3ncc(CCc4ccc(F)cc4)s3)nn2c(N2CCC(C)(C)CC2)c1[C@H](OC(C)(C)C)C(=O)O` [Example 16, (S)-2-(tert-Butoxy)-2-(7-(4,4-dimethylpiperidin-1-yl)-2-(5-(4-fluorophenethyl)thiazol-2-yl)-5-methylpyrazolo[1,5-a]pyrimidin-6-yl)acetic acid], the EC50 was found to be 38 nM.

On to `COC1(C)CCN(c2c([C@H](OC(C)(C)C)C(=O)O)c(C)nc3cc(-c4ncc(Cc5ccc(F)cc5)s4)nn23)CC1` [Example 22, (S)-2-(tert-Butoxy)-2-(2-(5-(4-fluorobenzyl)thiazol-2-yl)-7-(4-methoxy-4-methylpiperidin-1-yl)-5-methylpyrazolo[1,5-a]pyrimidin-6-yl)acetic acid], for which the concentration for a half-maximal effect (EC50) worked out at 12 nM.

On to `Cc1nc2cc(-c3nc(Cc4ccc(F)cc4)no3)nn2c(-c2cc(F)c3c(c2C)CCCO3)c1[C@H](OC(C)(C)C)C(=O)O` [Example 7, (2S)-2-(tert-Butoxy)-2-(7-(8-fluoro-5-methylchroman-6-yl)-2-(3-(4-fluorobenzyl)-1,2,4-oxadiazol-5-yl)-5-methylpyrazolo[1,5-a]pyrimidin-6-yl)acetic acid], for which the EC50 was determined as 28 nM.

In the case of `CC1=CCN(c2c([C@H](OC(C)(C)C)C(=O)O)c(C)nc3cc(-c4ncc(Cc5ccc(F)cc5)s4)nn23)CC1` [Example 19, (S)-2-(tert-Butoxy)-2-(2-(5-(4-fluorobenzyl)thiazol-2-yl)-5-methyl-7-(4-methyl-5,6-dihydropyridin-1(2H)-yl)pyrazolo[1,5-a]pyrimidin-6-yl)acetic acid], the EC50 worked out at 105 nM.

Consider `Cc1nc2cc(-c3ncc(-c4ccc(F)cc4)s3)nn2c(-c2cc(F)c3c(c2C)CCCO3)c1[C@H](OC(C)(C)C)C(=O)O` [Example 8, (2S)-2-(tert-Butoxy)-2-(7-(8-fluoro-5-methylchroman-6-yl)-2-(5-(4-fluorophenyl)thiazol-2-yl)-5-methylpyrazolo[1,5-a]pyrimidin-6-yl)acetic acid], for which the EC50 is 11 nM.

Regarding `Cc1nc2cc(-c3ncc(Cc4ccc(F)cc4)o3)nn2c(-c2cc(F)c3c(c2C)CCCO3)c1[C@H](OC(C)(C)C)C(=O)O` [Example 6, (2S)-2-(tert-Butoxy)-2-(7-(8-fluoro-5-methylchroman-6-yl)-2-(5-(4-fluorobenzyl)oxazol-2-yl)-5-methylpyrazolo[1,5-a]pyrimidin-6-yl)acetic acid], the EC50 was 6 nM.

On to `Cc1nc2cc(N3CCN(Cc4ccccc4)C3=O)nn2c(N2CCC(C)(C)CC2)c1[C@H](OC(C)(C)C)C(=O)O` [Example 26, (S)-2-(2-(3-Benzyl-2-oxoimidazolidin-1-yl)-7-(4,4-dimethylpiperidin-1-yl)-5-methylpyrazolo[1,5-a]pyrimidin-6-yl)-2-(tert-butoxy)acetic acid], for which the half-maximal effective concentration (EC50) worked out at 145 nM.

On to `Cc1nc2cc(-c3ccc(Cc4ccc(F)cc4)s3)nn2c(N2CCC(C)(C)CC2)c1[C@H](OC(C)(C)C)C(=O)O` [Example 25, (S)-2-(tert-Butoxy)-2-(7-(4,4-dimethylpiperidin-1-yl)-2-(5-(4-fluorobenzyl)thiophen-2-yl)-5-methylpyrazolo[1,5-a]pyrimidin-6-yl)acetic acid], for which the EC50 came to 23 nM.

Take `C=CCOC1(C)CCN(c2c([C@H](OC(C)(C)C)C(=O)O)c(C)nc3cc(-c4cn(Cc5ccccc5)cn4)nn23)CC1` [Example 41, (S)-2-(7-(4-(Allyloxy)-4-methylpiperidin-1-yl)-2-(1-benzyl-1H-imidazol-4-yl)-5-methylpyrazolo[1,5-a]pyrimidin-6-yl)-2-(tert-butoxy)acetic acid]: the EC50 is 15 nM.

On to `Cc1nc2cc(-c3ncc(Cc4ccc(F)cc4)s3)nn2c(-c2cc(F)c3c(c2C)CCCO3)c1[C@H](OC(C)(C)C)C(=O)O` [Example 5, (2S)-2-(tert-Butoxy)-2-(7-(8-fluoro-5-methylchroman-6-yl)-2-(5-(4-fluorobenzyl)thiazol-2-yl)-5-methylpyrazolo[1,5-a]pyrimidin-6-yl)acetic acid], for which the EC50 was found to be 3 nM.

Turning to `Cc1nc2cc(-c3nc4ccc(Cl)cc4n3C)nn2c(-c2cc(F)c3c(c2C)CCCO3)c1[C@H](OC(C)(C)C)C(=O)O` [Example 3, (2S)-2-(tert-Butoxy)-2-(2-(6-chloro-1-methyl-1H-benzo[d]imidazol-2-yl)-7-(8-fluoro-5-methylchroman-6-yl)-5-methylpyrazolo[1,5-a]pyrimidin-6-yl)acetic acid], the half-maximal effective concentration (EC50) turned out to be 100 nM.

In the case of `Cc1nc2cc(-n3cnc(Cc4ccccc4)c3)nn2c(N2CCC(C)(C)CC2)c1[C@H](OC(C)(C)C)C(=O)O` [Example 34, (S)-2-(2-(4-Benzyl-1H-imidazol-1-yl)-7-(4,4-dimethylpiperidin-1-yl)-5-methylpyrazolo[1,5-a]pyrimidin-6-yl)-2-(tert-butoxy)acetic acid], the 50% effective concentration (EC50) turned out to be 26 nM.

Staying with this test, now noted: NL-RLuc virus infecting MT-2 cells, 5 days of incubation, luciferase readout; at least 2 experiments; serum condition not given; read-out: EC50.
With `Cc1nc2cc(N3CC(Cc4ccccc4)OC3=O)nn2c(N2CCC(C)(C)CC2)c1[C@H](OC(C)(C)C)C(=O)O` (stereo partly drawn) [Example 29, (2S)-2-(2-(5-Benzyl-2-oxooxazolidin-3-yl)-7-(4,4-dimethylpiperidin-1-yl)-5-methylpyrazolo[1,5-a]pyrimidin-6-yl)-2-(tert-butoxy)acetic acid], the half-maximal effective concentration (EC50) worked out at 6 nM.

As to `Cc1nc2cc(N3CCC(Oc4ccccc4)C3=O)nn2c(N2CCC(C)(C)CC2)c1[C@H](OC(C)(C)C)C(=O)O` (stereo partly drawn) [Example 32, (2S)-2-(tert-Butoxy)-2-(7-(4,4-dimethylpiperidin-1-yl)-5-methyl-2-(2-oxo-3-phenoxypyrrolidin-1-yl)pyrazolo[1,5-a]pyrimidin-6-yl)acetic acid], the EC50 amounted to 339 nM.

Take `Cc1nc2cc(N3C(=O)OCC3Cc3ccccc3)nn2c(N2CCC(C)(C)CC2)c1[C@H](OC(C)(C)C)C(=O)O` (stereo partly drawn) [Example 27, (2S)-2-(2-(4-Benzyl-2-oxooxazolidin-3-yl)-7-(4,4-dimethylpiperidin-1-yl)-5-methylpyrazolo[1,5-a]pyrimidin-6-yl)-2-(tert-butoxy)acetic acid]: the EC50 stood at 478 nM.
